# Target: T1, Human AMPK α2ß2γ1 (Homo sapiens, UniProt O43741+P54646)
# T1 construct: The full length cDNAs of human AMPK ß2 (NM_005399.3) and human AMPK α2 (NM_006252.3); The full length cDNAs of human AMPK ß2 (NM_005399.3); 6xHis (N); made in house; host or cells: Escherichia coli BL21 CodonPlus (DE3)-RIL
# Test: Test Example 2: evaluation of an activator for AMP-activated protein kinase (AMPK), LabChip mobility shift assay with CaMKK2-phosphorylated enzyme
# Assay type: biochemical
# Conditions: for EC150 (compound concentration showing 150% relative to the control (100%)): FL-Peptide 7 substrate, 25° C., 2 hours; for Emax: read-out: Emax (maximum rate of increase in activity within the measurement range)
# Experimental: The full length cDNAs of human AMPK ß2 (NM_005399.3) and human AMPK α2 (NM_006252.3) were inserted into the MCS1 and MCS2 of the pETDuet-1 vector to prepare a human AMPK ß2 and human AMPK α2 (6× His tag at the 5′ terminus) expressing plasmid. The plasmid was cotransfected with an expression plasmid, in which the full length cDNA of human AMPK γ1 (NM_002733.3) had been inserted into pET28b(+), into BL21 CodonPlus (DE3)-RIL to obtain an expression strain. The expression strain was cultured in TB medium, followed by induction with 0.5 mM IPTG, and cultured at 25° C. for 3 hours and then harvested. After ultrasonication, supernatant was collected and applied to Histrap FF column (GE) and RESOURCE Q column (GE) to prepare 12.5 mg of purified sample containing three types of subunit from 1.8 L of broth.
# Preparation method of human CaMKK2 used to impart activity to AMPK An expression vector, in which the full length cDNA of human CAMKK ß (NM_172226.1) had been inserted into pGEX-6P-3, was transfected into BL21 Star (DE3). The expression strain was cultured in TB medium, followed by induction with 0.5 mM IPTG, and cultured at 25° C. for 3 hours and then harvested. After ultrasonication, supernatant was collected and applied to GSTrap FF column (GE) to prepare 14 mg of GST-fused CAMKK ß from 720 ml of broth.
# Thus, phosphorylation treatment was carried out as pretreatment.
# Human AMPK α2ß2γ1 in an amount to give a conversion rate of approximately 10% by reaction for 2 hours, and CaMKK2 in an amount capable of sufficiently imparting activity to AMPK for one hour were mixed in a buffer solution consisting of a 50 mM HEPES-NaOH buffer solution (pH 7.0), 100 mM NaCl, 5 mM magnesium chloride, 0.1% bovine serum albumin, 0.2 mM sodium orthovanadate(V), 1 mM ethylene glycol-bis(2-aminoethyl ether)-N,N,N′,N′-tetraacetic acid (EGTA), 5 mM disodium ß-glycerophosphate, 1 mM dithiothreitol and 0.2 mM ATP, and the resulting liquid was left to stand at 25° C. for 1 to 1.5 hours to sufficiently phosphorylate AMPK.
# After that, to the enzyme liquid, which had been subjected to phosphorylation treatment, a compound dissolved in DMSO was added so as to have a 1% DMSO concentration. The resulting liquid was left to stand for 10 minutes.
# To the liquid, a substrate solution consisting of a 50 mM HEPES-NaOH buffer solution (pH 7.0), 100 mM NaCl, 10 mM magnesium chloride, 0.1% bovine serum albumin, 0.2 mM sodium orthovanadate(V), 1 mM ethylene glycol-bis(2-aminoethyl ether)-N,N,N′,N′-tetraacetic acid (EGTA), 5 mM disodium ß-glycerophosphate, 2 mM dithiothreitol, 0.4 mM ATP and 3 μM FL-Peptide 7 (manufactured by Caliper Life Sciences, Inc.) was added in equal amount (10 μl in total). The resulting liquid was allowed to react at 25° C. for 2 hours, and 10 μl of 20 mM EDTA was added thereto to stop the reaction.
# To detect phosphorylated fluorescent substrates, the reaction mixture was applied to a measuring device, LabChip EZ Reader II manufactured by Caliper Life Science, Inc., for detecting fluorescence by using differences in mobility due to differences in charge. The setting conditions for the device were pressure, −1.5 PSI; upstream voltage, −2250 V; downstream voltage, −400 V; post sample buffer sip time, 40 seconds; final delay, 120 seconds; and peak order, Product First.
# A conversion rate was calculated from the peak heights of the obtained substrate and product. The conversion rate when not containing a compound was used as a control, and a concentration dependent curve was made by plotting the rate of increase in activity to the control at each concentration of a compound.
# T1 sequence (P54646 whole entry): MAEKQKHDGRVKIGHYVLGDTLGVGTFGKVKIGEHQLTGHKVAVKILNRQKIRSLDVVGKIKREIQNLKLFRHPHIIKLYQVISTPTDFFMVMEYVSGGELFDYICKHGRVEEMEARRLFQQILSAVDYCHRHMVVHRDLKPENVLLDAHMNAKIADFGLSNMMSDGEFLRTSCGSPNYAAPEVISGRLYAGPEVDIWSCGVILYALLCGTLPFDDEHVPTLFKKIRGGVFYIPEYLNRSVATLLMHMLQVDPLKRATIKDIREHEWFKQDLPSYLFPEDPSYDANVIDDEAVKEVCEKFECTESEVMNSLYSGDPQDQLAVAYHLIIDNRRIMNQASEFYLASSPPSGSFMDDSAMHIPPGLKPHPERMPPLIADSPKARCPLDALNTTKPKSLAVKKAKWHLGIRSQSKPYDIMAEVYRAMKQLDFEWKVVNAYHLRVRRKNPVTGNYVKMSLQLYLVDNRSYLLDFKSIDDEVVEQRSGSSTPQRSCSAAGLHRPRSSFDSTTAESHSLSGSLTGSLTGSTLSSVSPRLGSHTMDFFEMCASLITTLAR
# T1 sequence (O43741 whole entry): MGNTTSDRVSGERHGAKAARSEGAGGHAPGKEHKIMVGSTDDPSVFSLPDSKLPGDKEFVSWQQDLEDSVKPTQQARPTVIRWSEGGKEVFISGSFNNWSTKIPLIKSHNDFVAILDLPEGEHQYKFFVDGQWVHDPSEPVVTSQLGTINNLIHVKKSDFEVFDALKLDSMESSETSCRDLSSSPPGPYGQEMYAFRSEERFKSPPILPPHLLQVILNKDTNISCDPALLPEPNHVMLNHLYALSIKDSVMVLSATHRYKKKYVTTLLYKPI
# T1 sequence (P54619 whole entry partner): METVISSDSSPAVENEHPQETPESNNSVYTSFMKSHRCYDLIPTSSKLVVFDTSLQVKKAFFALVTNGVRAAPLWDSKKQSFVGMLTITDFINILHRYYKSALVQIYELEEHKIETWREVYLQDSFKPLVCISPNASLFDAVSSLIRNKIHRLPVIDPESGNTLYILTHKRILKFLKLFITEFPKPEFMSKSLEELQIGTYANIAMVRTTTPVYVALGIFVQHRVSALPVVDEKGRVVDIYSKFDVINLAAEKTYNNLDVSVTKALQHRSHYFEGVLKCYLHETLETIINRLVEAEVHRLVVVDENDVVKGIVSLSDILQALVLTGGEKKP
Compound,EC150 (compound concentration showing 150% relative to the control (100%)) [nM],Emax (relative to control (100%)) [%],Emax (maximum rate of increase in activity within the measurement range) (relative to control (100%)) [%]
"COCCCc1cnc2c(c1)CCC2Nc1nc2nc(O[C@@H]3CO[C@H]4[C@@H]3OC[C@H]4O)[nH]c2cc1Cl (single isomer, unassigned) [Compound I-1-10]",8.4,608,
"COC/C=C/c1cnc2c(c1)CCC2Nc1nc2nc(O[C@@H]3CO[C@H]4[C@@H]3OC[C@H]4O)[nH]c2cc1Cl (single isomer, unassigned) [Compound I-1-13]",2,604,
"COC/C=C/c1cc(F)c2c(c1)CCC2Oc1nc2nc(O[C@@H]3CO[C@H]4[C@@H]3OC[C@H]4O)[nH]c2cc1Cl (single isomer, unassigned) [Compound I-1-19]",3.5,404,
"Cn1cc(-c2cc(F)c3c(c2)CCC3Oc2nc3nc(O[C@@H]4CO[C@H]5[C@@H]4OC[C@H]5O)[nH]c3cc2Cl)cn1 (single isomer, unassigned) [Compound I-1-20]",4.3,403,
"Cn1ccc(-c2cc(F)c3c(c2)CCC3Oc2nc3nc(O[C@@H]4CO[C@H]5[C@@H]4OC[C@H]5O)[nH]c3cc2Cl)cc1=O (single isomer, unassigned) [Compound I-1-23]",1.3,454,
"Cn1cc(-c2cc(F)c3c(c2)CCC3Nc2nc3nc(O[C@@H]4CO[C@H](CO)C4)[nH]c3cc2Cl)cn1 (single isomer, unassigned) [Compound I-1-29]",1.9,426,
O[C@@H]1CO[C@H]2[C@@H]1OC[C@H]2Oc1nc2nc(NC3CCc4cc(Br)cnc43)c(Cl)cc2[nH]1 (stereo partly drawn) [Compound I-1-4],11,547,
OC/C=C/c1cnc2c(c1)CCC2Nc1nc2nc(O[C@@H]3CO[C@H]4[C@@H]3OC[C@H]4O)[nH]c2cc1Cl (stereo partly drawn) [Compound I-1-6],6.8,516,
Cn1cc(-c2cnc3c(c2)CCC3Nc2nc3nc(O[C@@H]4CO[C@H]5[C@@H]4OC[C@H]5O)[nH]c3cc2Cl)cn1 (stereo partly drawn) [Compound I-1-7],1.6,614,
COCCOc1cnc2c(c1)CCC2Nc1nc2nc(O[C@@H]3CO[C@H]4[C@@H]3OC[C@H]4O)[nH]c2cc1Cl (stereo partly drawn) [Compound I-1-11],9.8,606,
COCCNc1cnc2c(c1)CCC2Nc1nc2nc(O[C@@H]3CO[C@H]4[C@@H]3OC[C@H]4O)[nH]c2cc1Cl (stereo partly drawn) [Compound I-1-14],33,371,
Cn1cc(-c2cnc3c(c2)CCC3Oc2nc3nc(O[C@@H]4CO[C@H]5[C@@H]4OC[C@H]5O)[nH]c3cc2Cl)cn1 (stereo partly drawn) [Compound I-1-15],10,388,
COC/C=C/c1cc(F)c2c(c1)CCC2Nc1nc2[nH]c(O[C@@H]3CO[C@H](CO)C3)nc2cc1Cl (stereo partly drawn) [Compound I-1-24],25,423,
OCCOc1cc(F)c2c(c1)CCC2Nc1nc2nc(O[C@@H]3CO[C@H]4[C@@H]3OC[C@H]4O)[nH]c2cc1Cl (stereo partly drawn) [Compound I-1-32],2.3,389,
O[C@@H]1CO[C@H]2[C@@H]1OC[C@H]2Oc1nc2nc(NC3CCc4cc(OC5CCOCC5)cc(F)c43)c(Cl)cc2[nH]1 (stereo partly drawn) [Compound I-1-35],4.3,402,
O[C@@H]1CO[C@H]2[C@@H]1OC[C@H]2Oc1nc2nc(NC3CCc4cc(OCCN5CCCCC5)cc(F)c43)c(Cl)cc2[nH]1 (stereo partly drawn) [Compound I-1-38],8,392,
Cn1ccc(-c2cc(F)c3c(c2)CCC3Nc2nc3nc(O[C@@H]4CO[C@H]5[C@@H]4OC[C@H]5O)[nH]c3cc2Cl)cc1=O (stereo partly drawn) [Compound I-1-39],2.9,384,
NC(=O)COc1cc(F)c2c(c1)CCC2Nc1nc2nc(O[C@@H]3CO[C@H]4[C@@H]3OC[C@H]4O)[nH]c2cc1Cl (stereo partly drawn) [Compound I-1-42],2.1,391,
O=C(COc1cc(F)c2c(c1)CCC2Nc1nc2nc(O[C@@H]3CO[C@H]4[C@@H]3OC[C@H]4O)[nH]c2cc1Cl)NCO (stereo partly drawn) [Compound I-1-43],6.5,392,
Cn1cc(-c2cc(F)c3c(c2)CCC3Nc2nc3nc(O[C@@H]4CO[C@H]5[C@@H]4OC[C@H]5O)[nH]c3cc2Cl)cn1 (stereo partly drawn) [Compound I-1-44],5.6,422,
CC(=O)Nc1cc(F)c2c(c1)CCC2Nc1nc2nc(O[C@@H]3CO[C@H]4[C@@H]3OC[C@H]4O)[nH]c2cc1Cl (stereo partly drawn) [Compound I-1-45],4.7,435,
O[C@@H]1CO[C@H]2[C@@H]1OC[C@H]2Oc1nc2nc(NC3CCc4cc(-c5ccccc5)cnc43)c(Cl)cc2[nH]1 (stereo partly drawn) [Compound I-1-46],54,381,
NC(=O)COc1cnc2c(c1)CCC2Nc1nc2nc(O[C@@H]3CO[C@H]4[C@@H]3OC[C@H]4O)[nH]c2cc1Cl (stereo partly drawn) [Compound I-1-47],14,390,
O[C@@H]1CO[C@H]2[C@@H]1OC[C@H]2Oc1nc2nc(NC3CCc4cc(C5=CCOCC5)cnc43)c(Cl)cc2[nH]1 (stereo partly drawn) [Compound I-1-48],15,393,
O[C@@H]1CO[C@H]2[C@@H]1OC[C@H]2Oc1nc2nc(NC3CCc4cc(NCC(F)(F)F)cnc43)c(Cl)cc2[nH]1 (stereo partly drawn) [Compound I-1-70],21,384,
C/C=C/c1cc(F)c2c(c1)CCC2Oc1nc2nc(O[C@@H]3CO[C@H]4[C@@H]3OC[C@H]4O)[nH]c2cc1Cl (stereo partly drawn) [Compound I-1-72],13,375,
O[C@@H]1CO[C@H]2[C@@H]1OC[C@H]2Oc1nc2nc(OC3CCc4cc(-c5cscn5)cc(F)c43)c(Cl)cc2[nH]1 (stereo partly drawn) [Compound I-1-74],9.9,373,
Cn1nccc1-c1cc(F)c2c(c1)CCC2Oc1nc2nc(O[C@@H]3CO[C@H]4[C@@H]3OC[C@H]4O)[nH]c2cc1Cl (stereo partly drawn) [Compound I-1-76],15,378,
Cn1cccc(-c2cc(F)c3c(c2)CCC3Oc2nc3nc(O[C@@H]4CO[C@H]5[C@@H]4OC[C@H]5O)[nH]c3cc2Cl)c1=O (stereo partly drawn) [Compound I-1-77],3.3,386,
O=C1CCCN1CCOc1cc(F)c2c(c1)CCC2Nc1nc2nc(O[C@@H]3CO[C@H]4[C@@H]3OC[C@H]4O)[nH]c2cc1Cl (stereo partly drawn) [Compound I-1-79],4.2,,385

# Reference: patent US20190135834A1, “5-SUBSTITUTED AZABENZIMIDAZOLE DERIVATIVE HAVING ???? ACTIVATION ACTION” (Shionogi & Co., Ltd., priority 2016, published 2019)
